Data taken from US11147272B2, “Pyridone compounds and agricultural and horticultural fungicides comprising the same as active ingredients” (MITSUI CHEMICALS AGRO, INC., priority 2017, dated 2021).
Where two headings read alike, the source gives them in different places.

Legend:
Puccinia recondita = experiment: Test Example E: Brown rust on wheat; assay type: in vivo
[1] = tested on: Blumeria graminis f. sp. hordei; experiment: Test Example D: Powdery mildew on barley; conditions: for Test D control value class: class of control value
Plasmopara viticola = experiment: Test Example G: Downy mildew on vine; conditions: for pest or weed control at 250 ppm: Plasmopara viticola, topical; for Test G control value: 7 to 10 days after inoculation; for Test G control value class: Downy mildew on vine (Neomuscat), 2.5 ml/pot, assessed 7 to 10 days after inoculation
Magnaporthe grisea = experiment: whole plant or invertebrate; assay type: in vivo; conditions: for Test A control value class: class of control value
Phytophthora infestans = experiment: whole plant or invertebrate; assay type: in vivo; conditions: for Test F control value class: class of control value
Alternaia brassicicola = experiment: Test Example C: Alternaria sooty spot on cabbage; assay type: in vivo
From the text: Seeds of a test plant (cabbage variety: Shikidori) were planted and cultivated until the cotyledons extended.
<Control Value> Control value=100{1−(n/3)}

Botrytis cinerea = experiment: Test Example B: Gray mold on tomato; conditions: for Test B control value class: class of control value
[2] = tested on: Colletotrichum orbiculare; experiment: Test Example H: Anthracnose on cucumber; conditions: for pest or weed control at 250 ppm: Colletotrichum orbiculare, in Cucumis sativus, topical; for Test H control value: 6 to 10 days after inoculation; for Test H control value class: Anthracnose on cucumber (Sagami Hanjiro), 2.5 ml/pot, assessed 6 to 10 days after inoculation
[3] = Brown rust on wheat, control value class
[4] = Powdery mildew on barley, control value class
[5] = Downy mildew on vine, 250 ppm spray
[6] = Blast on rice, control value class
[7] = Late blight on tomato, control value class
[8] = Alternaria sooty spot on cabbage, control value class
[9] = Gray mold on tomato, control value class
[10] = Anthracnose on cucumber, 250 ppm spray
[11] = 250 ppm drug solution sprayed on test plant
[12] = 250 ppm drug solution sprayed (2.5 ml/pot), grape Neomuscat
[13] = 250 ppm drug solution sprayed (2.5 ml/pot), cucumber Sagami Hanjiro
[14] = Brown rust on wheat, class of control value
[15] = Alternaria sooty spot on cabbage, class of control value

CCn1c(-c2c(F)cccc2F)c(C(Br)Br)cc(Cl)c1=O [Compound No. 21, 3-chloro-5-(dibromomethyl)-6-(2,6-difluorophenyl)-1-ethylpyridin-2(1H)-one]
< 50%: pest or weed control at 250 µg/mL (Magnaporthe grisea; Pyricularia oryzae, in Oryza sativa, read-out: Test A control value class) | pest or weed control at 250 µg/mL (Phytophthora infestans; Phytophthora infestans, in Solanum lycopersicum, topical, read-out: Test F control value class) | pest or weed control at 250 µg/mL (Alternaia brassicicola; Brassica oleracea, topical, Alternaria sooty spot on cabbage, class of control value, read-out: Test C control value class) | pest or weed control at 250 ppm ([2]; read-out: Test H control value class)
> 50%: pest or weed control at 250 µg/mL (Puccinia recondita; Puccinia recondita, topical, Brown rust on wheat, class of control value, read-out: Test E control value class) | pest or weed control at 250 µg/mL ([1]; Blumeria graminis, in Hordeum vulgare, topical, read-out: Test D control value class) | pest or weed control at 250 ppm (Plasmopara viticola; read-out: Test G control value class) | pest or weed control at 250 µg/mL (Botrytis cinerea; Botrytis cinerea, in Solanum lycopersicum, topical, read-out: Test B control value class)

CCCC1=C(c2ccc(F)cc2Cl)N(C)C(=O)CC1 [compound 323]
L (50% or less control value): Test E control value (Puccinia recondita; [3]) | Test D control value [1, 4] | Test G control value (Plasmopara viticola; [5]) | Test A control value (Magnaporthe grisea; [6]) | Test F control value (Phytophthora infestans; [7]) | Test C control value (Alternaia brassicicola; [8]) | Test H control value [2, 10]
H (more than 50% control value): Test B control value (Botrytis cinerea; [9])

CCn1c(-c2c(F)cc(F)cc2F)c(C(C)(O)C(C)C)ccc1=O (stereo not drawn) [compound 455]
L (50% or less control value): Test A control value (Magnaporthe grisea; [11]) | Test F control value (Phytophthora infestans; [11])
H (more than 50% control value): Test E control value (Puccinia recondita; [11]) | Test D control value [1, 11] | Test G control value (Plasmopara viticola; [12]) | Test C control value (Alternaia brassicicola; [11]) | Test B control value (Botrytis cinerea; [11]) | Test H control value [2, 13]

CCCc1cc(Br)c(=O)n(CC)c1-c1c(F)cc(OC)cc1F [compound 385]
L (50% or less control value): Test F control value (Phytophthora infestans; [11])
H (more than 50% control value): Test E control value (Puccinia recondita; [11]) | Test D control value [1, 11] | Test G control value (Plasmopara viticola; [12]) | Test A control value (Magnaporthe grisea; [11]) | Test C control value (Alternaia brassicicola; [11]) | Test B control value (Botrytis cinerea; [11]) | Test H control value [2, 13]

COc1cc(F)c(-c2c(C(C)(C)C)cc(Br)c(=O)n2C)c(F)c1 [compound 82]
H (more than 50% control value): Test E control value class (Puccinia recondita; [14]) | Test G control value class (Plasmopara viticola; 250 ppm spray) | Test C control value class (Alternaia brassicicola; [15]) | Test B control value class (Botrytis cinerea; Gray mold on tomato) | Test H control value class ([2]; 250 ppm spray)
L (50% or less control value): Test D control value class ([1]; Powdery mildew on barley) | Test A control value class (Magnaporthe grisea; Blast on rice) | Test F control value class (Phytophthora infestans; Late blight on tomato)

CCCc1ccc(=O)n(CC)c1-c1c(F)cc(OCC)cc1F [compound 456]
L (50% or less control value): Test F control value (Phytophthora infestans; [11])
H (more than 50% control value): Test E control value (Puccinia recondita; [11]) | Test D control value [1, 11] | Test G control value (Plasmopara viticola; [12]) | Test A control value (Magnaporthe grisea; [11]) | Test C control value (Alternaia brassicicola; [11]) | Test B control value (Botrytis cinerea; [11]) | Test H control value [2, 13]

CC(C)Cc1cc(Br)c(=O)n(C)c1-c1ccc(F)cc1 [compound 156]
L (50% or less control value): Test G control value class (Plasmopara viticola; 250 ppm spray) | Test F control value class (Phytophthora infestans; Late blight on tomato) | Test H control value class ([2]; 250 ppm spray)
H (more than 50% control value): Test E control value class (Puccinia recondita; [14]) | Test D control value class ([1]; Powdery mildew on barley) | Test A control value class (Magnaporthe grisea; Blast on rice) | Test C control value class (Alternaia brassicicola; [15]) | Test B control value class (Botrytis cinerea; Gray mold on tomato)

CCCc1cc(Cl)c(=O)n(CC(F)F)c1-c1c(F)cc(F)cc1F [compound 471]
L (50% or less control value): Test F control value (Phytophthora infestans; [11])
H (more than 50% control value): Test E control value (Puccinia recondita; [11]) | Test D control value [1, 11] | Test G control value (Plasmopara viticola; [12]) | Test A control value (Magnaporthe grisea; [11]) | Test C control value (Alternaia brassicicola; [11]) | Test B control value (Botrytis cinerea; [11]) | Test H control value [2, 13]

CCn1c(-c2c(F)cc(OC)cc2F)c(C(C)C)cc(Br)c1=O [compound 12]
H (more than 50% control value): Test E control value class (Puccinia recondita; [14]) | Test D control value class ([1]; Powdery mildew on barley) | Test G control value class (Plasmopara viticola; 250 ppm spray) | Test A control value class (Magnaporthe grisea; Blast on rice) | Test C control value class (Alternaia brassicicola; [15]) | Test B control value class (Botrytis cinerea; Gray mold on tomato) | Test H control value class ([2]; 250 ppm spray)
L (50% or less control value): Test F control value class (Phytophthora infestans; Late blight on tomato)

CCn1c(-c2c(F)cc(F)cc2F)c(C(OC)C(C)C)cc(Cl)c1=O (stereo not drawn) [compound 65]
H (more than 50% control value): Test E control value class (Puccinia recondita; [14]) | Test D control value class ([1]; Powdery mildew on barley) | Test A control value class (Magnaporthe grisea; Blast on rice) | Test C control value class (Alternaia brassicicola; [15]) | Test B control value class (Botrytis cinerea; Gray mold on tomato) | Test H control value class ([2]; 250 ppm spray)
L (50% or less control value): Test G control value class (Plasmopara viticola; 250 ppm spray) | Test F control value class (Phytophthora infestans; Late blight on tomato)

CCn1c(-c2c(F)cc(OC)cc2F)c(C(OC)C(F)(F)F)cc(Cl)c1=O (stereo not drawn) [Compound No. 518, 3-chloro-6-(2,6-difluoro-4-methoxyphenyl)-1-ethyl-5-(2,2,2-trifluoro-1-methoxyethyl)pyridin-2(1H)-one]
< 50%: pest or weed control at 250 ppm (Plasmopara viticola; 168 h, read-out: Test G control value) | pest or weed control at 250 ppm (Phytophthora infestans; Phytophthora infestans, in Solanum lycopersicum, topical, read-out: Test F control value)
> 50%: pest or weed control at 250 ppm (Puccinia recondita; Puccinia recondita, topical, 250 ppm drug solution sprayed on test plant) | pest or weed control at 250 ppm ([1]; Blumeria graminis, in Hordeum vulgare, topical, read-out: Test D control value) | pest or weed control at 250 ppm (Magnaporthe grisea; Pyricularia oryzae, in Oryza sativa, read-out: Test A control value) | pest or weed control at 250 ppm (Alternaia brassicicola; topical, 250 ppm drug solution sprayed on test plant) | pest or weed control at 250 ppm (Botrytis cinerea; Botrytis cinerea, in Solanum lycopersicum, topical, read-out: Test B control value) | pest or weed control at 250 ppm ([2]; 144 h, read-out: Test H control value)

CC(C)Cc1ccc(=O)n(C)c1-c1ccc(Cl)cc1Cl [compound 134]
H (more than 50% control value): Test E control value class (Puccinia recondita; [14]) | Test D control value class ([1]; Powdery mildew on barley) | Test G control value class (Plasmopara viticola; 250 ppm spray) | Test A control value class (Magnaporthe grisea; Blast on rice) | Test B control value class (Botrytis cinerea; Gray mold on tomato)
L (50% or less control value): Test F control value class (Phytophthora infestans; Late blight on tomato) | Test C control value class (Alternaia brassicicola; [15]) | Test H control value class ([2]; 250 ppm spray)

CCn1c(-c2c(F)cc(OC)cc2F)c(C(C)(O)C(C)C)cc(Cl)c1=O (racemic) [compound 108]
H (more than 50% control value): Test E control value class (Puccinia recondita; [14]) | Test D control value class ([1]; Powdery mildew on barley) | Test G control value class (Plasmopara viticola; 250 ppm spray) | Test A control value class (Magnaporthe grisea; Blast on rice) | Test C control value class (Alternaia brassicicola; [15]) | Test B control value class (Botrytis cinerea; Gray mold on tomato) | Test H control value class ([2]; 250 ppm spray)
L (50% or less control value): Test F control value class (Phytophthora infestans; Late blight on tomato)

CCc1cc(Cl)c(=O)n(CC)c1-c1ccc(F)cc1Br [compound 342]
H (more than 50% control value): Test E control value (Puccinia recondita; [3]) | Test D control value [1, 4] | Test A control value (Magnaporthe grisea; [6]) | Test C control value (Alternaia brassicicola; [8]) | Test B control value (Botrytis cinerea; [9]) | Test H control value [2, 10]
L (50% or less control value): Test G control value (Plasmopara viticola; [5]) | Test F control value (Phytophthora infestans; [7])

CCc1cc(Br)c(=O)n(CC)c1-c1ccc(OC)cc1C [compound 356]
L (50% or less control value): Test G control value (Plasmopara viticola; [5]) | Test F control value (Phytophthora infestans; [7])
H (more than 50% control value): Test E control value (Puccinia recondita; [3]) | Test D control value [1, 4] | Test A control value (Magnaporthe grisea; [6]) | Test C control value (Alternaia brassicicola; [8]) | Test B control value (Botrytis cinerea; [9]) | Test H control value [2, 10]
